Data set [1] in a line: Stability in human serum (HPLC). As to conditions: 37 °C; for remaining at 48 h: after 48 h of incubation, read-out: initial concentration of peptide remaining unchanged (HPLC); for remaining at 5 h: after 5 h of incubation, read-out: intact peptide detected by HPLC; for state of peptide in human serum: after 24 h. In kind it is in vitro ADME. Further details: remaining at 5 h / remaining at 48 h: dose or concentration left out as unconfirmed. The method, then:
Next, we examined the stabilities of inhibitors 3, 5, 6, and FI in human serum (Figure 6). As expected, both monocyclic peptides (3 and FI) were degraded more rapidly than bicyclic inhibitors 5 and 6. After 5 h of incubation, about 25% of intact peptide 3 and 15% of FI were detected by HPLC. […] By contrast, the bicyclic peptides were clearly more resistant and stable. About 59% and 28% (based on HPLC data) of the initial concentrations of peptide 5 and peptide 6, respectively, remained unchanged even after 48 h of incubation. […] This possible protease-driven degradation was not confirmed in any additional experiments and must be treated with caution. It might be also speculated that the observed decrease in concentrations of both bicyclic peptides is related to binding to serum proteins during the long incubation process and subsequent sample preparation before HPLC analysis, as mentioned elsewhere.[36] Generally, our results are in accordance with the widely recognized observation that macrocyclization of peptides increases their stability. […]
Next step was addition of appropriate peptide solution
(final concentration in well 100 µM) and 30 min incubation in 37 °C. After this time 10 µL substrate (100 µM final concentration) was added to the well. Percentage inhibition of the enzyme was calculated relative to the control sample without inhibitor.
Human serum from plasma (Sigma Aldrich, Germany) was prepared for the assay as referred previously.8 The experiments were carried out according to the procedure described before.2 The initial concentration of the peptide solutions was 1.54 mM. Each peptide solution was then diluted 10 times with human serum and incubated at 37 °C. Immediately after the start of incubation, 1, 2, 3, 5 and 24 […]
hours the samples of 200 μL were taken and mixed with 200 μL of acetonitrile to separate the human serum proteins. The formed precipitate was removed by centrifugation for 10 min at 13,000 rpm. The supernatant was stored in 3-4 °C for at least 1 hour before being analyzed by RP-HPLC (linear gradient 10-90% phase B, 40 min., Kinetex 5 μm XB-C18 100Å 150 x 4.6 mm) and MALDI-MS (Autoflex maX MALDI-TOF spectrometer, Bruker Daltonics, Germany). In order to determine peptide stability at each time point, the peptide peak area from recorded chromatograms was compared with the peptide peak area obtained directly after mixing peptide and plasma, and expressed as its percentage.
Molecular dynamics simulations […]
(Figure 5SA) bound to the furin active site were built based on the crystal structure of MT-SP1 in complex with SFTI-1 (PDB ID: 1P8J 2.0 Å) by aligning catalytic triad of both proteins in PyMOL, Molecular Graphics System, Version 2.0 Schrödinger, LLC software. Next, SFTI-1 peptide was replaced by one of the five designed ligands (Figure 5SB). Five resulting furin-inhibitor complexes were further used as starting structures for the molecular dynamic (MD) calculations.
The AMBER20 suite was used to perform MD simulations,9 ff14SBonlysc10 force field parameters were used. The initial complex structures were built in the xLeap module of AMBER20. The periodic boundary conditions with TIP3P11 octahedral water box and Na+ counterions were used. Two steps of energy minimization were performed: first 500 steepest descent and then 1000 conjugate gradient cycles with harmonic restraints of 10 kcal/mol/Å2 on the solute, next 3000 steepest descent and 3000 conjugate gradient cycles without restraints. Next, the systems were heated up to 300K for 10 ps in NVT ensemble followed by the simulations in NPT ensemble at the pressure of 105 Pa. Finally, five independent MD production runs of 100 ns for each furin-inhibitor complex were performed in NPT ensemble. The time integration step was 2 fs, the cutoff for non-bonded interactions was 8 Å, the SHAKE algorithm for the covalent bonds that included hydrogen atoms12 and the Particle Mesh Ewald procedure13 were used. The […]

In data set [2] the target is furin. The settings on record: cited from earlier work.

Bridge positions count the residues as written; N and C are the ends. Peptide text beside a SMILES is read from it.

As to `CC[C@H](C)[C@@H]1NC(=O)[C@@H]2CCCN2C(=O)[C@@H]2CCCN2C(=O)[C@H]([C@@H](C)CC)NC(=O)[C@H](CO)NC(=O)[C@H](CCCCN)NC(=O)[C@H](CCCCN)NC(=O)[C@@H]2CSSC[C@H](NC1=O)C(=O)N[C@@H](Cc1ccccc1)C(=O)N[C@@H](CCCCN)C(=O)N[C@@H](CCCNC(=N)N)C(=O)N[C@@H](CCCNC(=N)N)C(=O)N2` [inhibitor 5, &^1Lys-Arg-Arg-Cys(&^2)-Lys-Lys-Ser-Ile-Pro-Pro-Ile-Cys(&^2)-Phe&^1] (cyclo(KRRCKKSIPPICF); disulfide 4-12), in data set [1], the remaining at 48 h is approximately 59%.

What is called Ki is the dissociation constant of the complex between target and ligand, obtained from inhibition or displacement. Consider `CC[C@H](C)[C@@H]1NC(=O)[C@@H]2CCCN2C(=O)[C@@H]2CCCN2C(=O)[C@H]([C@@H](C)CC)NC(=O)[C@H](CO)NC(=O)[C@H](CCCCN)NC(=O)[C@H](CCCCN)NC(=O)[C@@H](NC(=O)[C@H](CCCNC(=N)N)NC(=O)[C@@H](N)CCCCN)CSSC[C@@H](C(=O)N[C@@H](Cc2ccccc2)C(N)=O)NC1=O` [FI, Lys-Arg-Cys(&)-Lys-Lys-Ser-Ile-Pro-Pro-Ile-Cys(&)-Phe-NH2, reference compound] (H-KRCKKSIPPICF-NH2; disulfide 3-11; N-terminus assumed), for which, in data set [2], the Ki was 0.49 nM. Also, in data set [1], the remaining at 5 h was approximately 15% and the “state of peptide in human serum” value was “completely degraded”. As for `CC[C@H](C)[C@@H]1NC(=O)[C@@H]2CCCN2C(=O)[C@@H]2CCCN2C(=O)[C@H]([C@@H](C)CC)NC(=O)[C@H](CO)NC(=O)[C@H](CCCCN)NC(=O)[C@H](CCCCN)NC(=O)[C@@H]2CSSC[C@H](NC1=O)C(=O)N[C@@H](Cc1ccccc1)C(=O)N[C@@H](CCCNC(=N)N)C(=O)N[C@@H](CCCNC(=N)N)C(=O)N[C@@H](CCCNC(=N)N)C(=O)N2` [inhibitor 6, &^1Arg-Arg-Arg-Cys(&^2)-Lys-Lys-Ser-Ile-Pro-Pro-Ile-Cys(&^2)-Phe&^1] (cyclo(RRRCKKSIPPICF); disulfide 4-12), the remaining at 48 h in data set [1] was approximately 28%.

For the compound `CC[C@H](C)[C@@H]1NC(=O)[C@@H]2CCCN2C(=O)[C@@H]2CCCN2C(=O)[C@H]([C@@H](C)CC)NC(=O)[C@H](CO)NC(=O)[C@H](CCCCN)NC(=O)[C@H](CCCCN)NC(=O)[C@@H](NC(=O)[C@H](CCCNC(=N)N)NC(=O)[C@H](CCCNC(=N)N)NC(=O)[C@@H](N)CCCNC(=N)N)CSSC[C@@H](C(=O)N[C@@H](Cc2ccccc2)C(N)=O)NC1=O` [inhibitor 3, Arg-Arg-Arg-Cys(&)-Lys-Lys-Ser-Ile-Pro-Pro-Ile-Cys(&)-Phe-NH2] (H-RRRCKKSIPPICF-NH2; disulfide 4-12), in data set [1], the remaining at 5 h is approximately 25% and the “state of peptide in human serum” value is listed as “completely degraded”.

The record behind these values is PMC10107917 (ACS Medicinal Chemistry Letters, 2023).
